According to patent publication US20070275902A1, “Treatment of Phosphatidylinositol Phospholipid Disorders” (TRANSMOLECULAR, INC., priority 2003, published 2007):
“Also recorded” adds a separate entry of the source.

Test: Binding to phosphatidylinositol beads (PIP beads), biotinylated peptide detected with streptavidin-HRP/TMB
Details: biotinylated peptide at final concentration of 100 μM, two hours at room temperature, absorbance 595 nm
Description: Sedimented suspensions of PIP beads™ were obtained from Molecular Probes. The beads are supplied as 10 nanomoles of bound phosphoinositide per milliliter of sedimented suspension. PIP beads were pelleted by centrifugation at low speed in a Beckman Coulter Microfuge. Pelleted beads were washed in wash-binding buffer (0.5% NP-40 in phosphate-buffered saline, 1 ml, 3×5 minutes) and centrifuged at low speed following each wash. After washing, pelleted beads were resuspended in an equal volume of Wash/Binding buffer. 100 μl of bead suspension was used for each binding reaction. Biotinylated chlorotoxin was diluted in wash-binding buffer, added to each phosphatidylinositol bead suspension at a final concentration of 100 μM and allowed to incubate for two hours at room temperature. Following incubation with chlorotoxin, the bead suspensions were washed in Wash/Binding buffer (1 ml, 3×5 minutes) and centrifuged at low speed after each wash. Streptavidin horseradish peroxidase (Vector Labs) was diluted 1:1000 in wash-binding buffer, 100 μl of this solution was added to each of the phosphatidylinositol bead suspensions, and allowed to incubate […] at room temperature. Following incubation with streptavidin, bead suspensions were washed thoroughly in Wash/Binding buffer (1 ml, 5×10 minutes) and centrifuged at low speed after each wash. Immediately prior to use, a 1:1 mixture of TMB substrate (Pierce) was prepared, 100 μl of this solution was added to each reaction, and allowed to incubate at room temperature for up to thirty minutes. After incubation with substrate, bead suspensions were pelleted by centrifugation, supernatants were transferred to a 96-well plate and absorbance (λ=595 nm) was obtained using BioRad microplate reader and microplate manager software.
In order to confirm the identify of the minimal binding sequences within the alpha and beta peptides, each of the two peptides was incubated with different species of phosphatidylinositols as set forth in Example 1.

Substance	binding to different species of phosphatidylinositols
KGRGKSY [beta-domain peptide]	binds to multiple species of phosphatidylinositols; also recorded: bound to all of the same species of phosphatidylinositols as did chlorotoxin
TDHQMAR [alpha-domain peptide]	no binding activity
chlorotoxin	binding of chlorotoxin to different phosphatidylinositols
